In US10774068B2, “Composition and methods for inhibiting mammalian sterile 20-like kinase 1” (The Scripps Research Institute, priority 2015, dated 2020):
Like-named read-outs stand apart in the source and are kept apart here.

Tests used:
MST1 = MST1 (Homo sapiens (Human), UniProt Q13043); experiment: MST1 biochemical LanthaScreen Eu Kinase Binding Assay
Method: (§1) MST1 and MST2 biochemical LanthaScreen Eu Kinase Binding Assay was based on the binding and displacement of kinase tracer to the kinase of interest. Compounds in 1000×DMSO stock solution was dispensed using automated dispensing system (Labcyte) to 384 well Corning Microplate at 15 nL, 5 uL of Kinase buffer A was added to each well. Plates were shaken and incubated for 1 min to ensure well dissolution of compounds.

MST2 = MST2 (Homo sapiens (Human), UniProt Q13188); experiment: MST2 biochemical LanthaScreen Eu Kinase Binding Assay
Sequence of MST2 (Q13188 whole entry): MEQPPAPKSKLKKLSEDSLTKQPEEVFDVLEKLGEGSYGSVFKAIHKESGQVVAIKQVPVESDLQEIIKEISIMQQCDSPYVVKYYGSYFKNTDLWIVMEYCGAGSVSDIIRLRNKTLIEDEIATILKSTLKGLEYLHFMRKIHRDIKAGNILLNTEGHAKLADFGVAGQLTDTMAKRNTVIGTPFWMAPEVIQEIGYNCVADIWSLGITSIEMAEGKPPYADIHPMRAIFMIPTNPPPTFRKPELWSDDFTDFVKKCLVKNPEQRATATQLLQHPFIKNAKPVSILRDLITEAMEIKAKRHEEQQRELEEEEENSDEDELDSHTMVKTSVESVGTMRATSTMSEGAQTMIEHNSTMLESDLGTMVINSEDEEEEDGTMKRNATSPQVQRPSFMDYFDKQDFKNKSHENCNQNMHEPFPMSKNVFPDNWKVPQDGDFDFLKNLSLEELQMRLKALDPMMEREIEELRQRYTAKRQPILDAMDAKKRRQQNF
Method: as §1

[1] = read-out: Kinase Binding assay-MST1 IC50
[2] = read-out: Kinase Binding assay-MST2 IC50

Sequence of MST1 (Q13043 whole entry): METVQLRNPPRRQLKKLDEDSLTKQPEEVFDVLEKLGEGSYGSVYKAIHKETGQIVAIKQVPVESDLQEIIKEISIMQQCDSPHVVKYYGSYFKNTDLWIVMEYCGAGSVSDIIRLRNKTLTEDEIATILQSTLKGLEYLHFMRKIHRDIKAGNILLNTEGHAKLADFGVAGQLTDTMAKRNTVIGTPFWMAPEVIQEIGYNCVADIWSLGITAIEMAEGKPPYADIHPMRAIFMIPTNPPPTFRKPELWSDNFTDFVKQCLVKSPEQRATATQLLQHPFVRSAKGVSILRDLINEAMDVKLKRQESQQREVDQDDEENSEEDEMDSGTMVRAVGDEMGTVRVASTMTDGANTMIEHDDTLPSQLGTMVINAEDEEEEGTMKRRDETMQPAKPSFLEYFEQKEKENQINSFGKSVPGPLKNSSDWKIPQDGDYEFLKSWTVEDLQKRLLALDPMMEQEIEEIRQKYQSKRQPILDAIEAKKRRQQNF

| IC50 (MST1; [1]) [nM] | IC50 (MST2; [2]) [nM] | SMILES | IC50 (MST2) [nM] | IC50 (MST1) [nM] |
| --- | --- | --- | --- | --- |
| < 100 | < 100 | CCOc1cc2ncc(C#N)c(Nc3ccc(OCc4ncccc4C#N)c(Cl)c3)c2cc1NC(=O)CCCN(C)C [Example 19] | – | – |
| – | – | Cc1cccnc1COc1ccc(Nc2c(C#N)cnc3ccc(NC(=O)CCCN(C)C)cc23)c(Cl)c1 [Example 144, N-(4-(2-chloro-4-((3-methylpyridin-2-yl)methoxy)phenylamino)-3-cyanoquinolin-6-yl)-4-(dimethylamino)butanamide] | 100 to 1000 | 100 to 1000 |
| < 100 | < 100 | CCOc1cc2ncc(C#N)c(Nc3ccc(OCc4nc(Br)ccc4C)cc3Cl)c2cc1NC(=O)CCCN(C)C [Example 77] | – | – |
| < 100 | < 100 | CCOc1cc2ncc(C#N)c(Nc3ccc(OCc4ncccc4C)c(OC)c3)c2cc1NC(=O)/C=C/CN(C)C [Example 92] | – | – |
| < 100 | < 100 | CCOc1cc2ncc(C#N)c(Nc3ccc(OCc4ncccc4C)cc3C)c2cc1NC(=O)/C=C/CN(C)C [Example 93] | – | – |
| < 100 | < 100 | CCOc1cc2ncc(C#N)c(Nc3cc(Cl)c(OCc4ncccc4C)cc3C)c2cc1NC(=O)CCCN(C)C [Example 78] | – | – |
| – | – | CCOc1cc2ncc(C#N)c(Nc3ccc(OCc4ncccc4C)c(C#N)c3)c2cc1NC(=O)CCCN(C)C [Example 27] | 1000 to 10000 | 100 to 1000 |
| < 100 | < 100 | CCOc1cc2ncc(C#N)c(Nc3ccc(OCc4cn5cccc(C)c5n4)c(Cl)c3)c2cc1NC(=O)CCCN(C)C [Example 41] | – | – |
| < 100 | < 100 | CCOc1cc2ncc(C#N)c(Nc3ccc(OCc4ncccc4C)c(Cl)c3)c2cc1NC(=O)CCCN(C)C [Example 1] | – | – |
| < 100 | < 100 | CCOc1cc2ncc(C#N)c(Nc3cc(C)c(OCc4ncccc4C)cc3C)c2cc1NC(=O)/C=C/CN(C)C [Example 94] | – | – |
| – | – | CCOc1cc2ncc(C#N)c(Nc3ccc(OCc4ccccn4)c(Cl)c3)c2cc1NC [Example 140, 4-(3-chloro-4-(pyridin-2-ylmethoxy)phenylamino)-7-ethoxy-6-(methylamino)quinoline-3-carbonitrile] | 1000 to 10000 | 100 to 1000 |
| – | – | CCOc1cc2ncc(C#N)c(Nc3ccc(OCc4cccc(OC)n4)c(Cl)c3)c2cc1NC(=O)CCCN(C)C [Example 6] | 100 to 1000 | 100 to 1000 |
| < 100 | < 100 | CCOc1cc2ncc(C#N)c(Nc3ccc(OCc4ncccc4CC)c(Cl)c3)c2cc1NC(=O)CCCN(C)C [Example 45] | – | – |
| – | – | CCOc1cc2ncc(C#N)c(Nc3ccc(OCc4ccc(Cl)cn4)c(Cl)c3)c2cc1NC(=O)CCCN(C)C [Example 14] | 100 to 1000 | 100 to 1000 |
| < 100 | < 100 | CCOc1cc2ncc(C#N)c(Nc3ccc(OCc4ncccc4C)c(C)c3C)c2cc1NC(=O)CCCN(C)C [Example 33] | – | – |
| – | – | CCOc1cc2ncc(C=O)c(Nc3ccc(OCc4ncccc4C)cc3Cl)c2cc1NC(=O)CCCN(C)C [Example 145, N-(4-(2-chloro-4-((3-methylpyridin-2-yl)methoxy)phenylamino)-7-ethoxy-3-formylquinolin-6-yl)-4-(dimethylamino)butanamide] | 1000 to 10000 | 1000 to 10000 |

| IC50 (MST1; [1]) [nM] | IC50 (MST2; [2]) [nM] | SMILES | IC50 (MST2) [nM] | IC50 (MST1) [nM] |
| --- | --- | --- | --- | --- |
| – | – | CCOc1cc2ncc(C#N)c(Nc3ccc(NC(=O)c4ncccc4C)c(Cl)c3)c2cc1NC(=O)CCCN(C)C [Example 108, N-(2-chloro-4-(3-cyano-6-(4-(dimethylamino)butanamido)-7-ethoxyquinolin-4-ylamino)phenyl)-3-methylpicolinamide] | 100 to 1000 | 100 to 1000 |
| < 100 | < 100 | CCOc1cc2ncc(C#N)c(Nc3ccc(OCc4ncccc4C(F)(F)F)cc3Cl)c2cc1NC(=O)CCCN(C)C [Example 81] | – | – |
| < 100 | < 100 | CCOc1cc2ncc(C#N)c(Nc3cc(Cl)c(OCc4ncccc4C)cc3Br)c2cc1NC(=O)CCCN(C)C [Example 79] | – | – |
| – | – | CCOc1cc2ncc(C#N)c(Nc3ccc(OCc4ccc(F)cn4)c(Cl)c3)c2cc1NC(=O)CCCN(C)C [Example 13] | 100 to 1000 | 100 to 1000 |
| < 100 | < 100 | CCOc1cc2ncc(C#N)c(Nc3cc(C)c(OCc4ncccc4C)cc3C)c2cc1NC(=O)CCCN(C)C [Example 34] | – | – |
| < 100 | < 100 | CCOc1cc2ncc(C#N)c(Nc3ccc(OCc4ncccc4C)cc3Br)c2cc1NC(=O)CCCN(C)C [Example 74] | – | – |
| 100 to 1000 | 100 to 1000 | CCOc1cc2ncc(C#N)c(Nc3ccc(CCc4ccccn4)c(Cl)c3)c2cc1NC(=O)CCCN(C)C [Example 107, N-(4-(3-chloro-4-(2-(pyridin-2-yl)ethyl)phenylamino)-3-cyano-7-ethoxyquinolin-6-yl)-4-(dimethylamino)butanamide] | – | – |
| – | – | CCOc1cc2ncc(C#N)c(Nc3ccc(OCc4ncccc4C)cc3C(F)(F)F)c2cc1NC(=O)CCCN(C)C [Example 29] | 100 to 1000 | 100 to 1000 |
| < 100 | < 100 | CCOc1cc2ncc(C#N)c(Nc3ccc(OCc4cccc(Cl)n4)c(Cl)c3)c2cc1NC(=O)CCCN(C)C [Example 7] | – | – |
| < 100 | < 100 | CCOc1cc2ncc(C#N)c(Nc3ccc(OCc4ncccc4C)c(Cl)c3)c2cc1NC(=O)/C=C/CN(C)C [Example 90, (E)-N-(4-(3-chloro-4-((3-methylpyridin-2-yl)methoxy)phenylamino)-3-cyano-7-ethoxyquinolin-6-yl)-4-(dimethylamino)but-2-enamide] | – | – |
| < 100 | < 100 | CCOc1cc2ncc(C#N)c(Nc3cc(Cl)c(OCc4ncccc4C)c(Cl)c3)c2cc1NC(=O)CCCN(C)C [Example 26] | – | – |
| < 100 | < 100 | CCOc1cc2ncc(C#N)c(Nc3ccc(OCc4nc(Br)ccc4C)c(Cl)c3)c2cc1NC(=O)CCCN(C)C [Example 76] | – | – |
| < 100 | < 100 | CCOc1cc2ncc(C#N)c(Nc3ccc(OCc4cccc(C)n4)c(Cl)c3)c2cc1NC(=O)CCCN(C)C [Example 12] | – | – |
| < 100 | < 100 | CCOc1cc2ncc(C#N)c(Nc3ccc(OCc4ncccc4CO)cc3Cl)c2cc1NC(=O)CCCN(C)C [Example 83] | – | – |
| < 100 | < 100 | CCOc1cc2ncc(C#N)c(Nc3ccc(OCc4ncccc4C)c(Cl)c3)c2cc1NC(C)=O [Example 84, N-(4-(3-chloro-4-((3-methylpyridin-2-yl)methoxy)phenylamino)-3-cyano-7-ethoxyquinolin-6-yl)acetamide] | – | – |

| SMILES | IC50 (MST1; [1]) [nM] | IC50 (MST2; [2]) [nM] | IC50 (MST2) [nM] | IC50 (MST1) [nM] |
| --- | --- | --- | --- | --- |
| CCOc1cc2ncc(C#N)c(Nc3ccc(OCc4ccccn4)c(Cl)c3)c2cc1NC(=O)CCCN1CCOCC1 [Example 99] | 100 to 1000 | – | 100 to 1000 | – |
| CCOc1cc2ncc(C#N)c(Nc3ccc(OCc4ncccc4C(F)(F)F)c(Cl)c3)c2cc1NC(=O)CCCN(C)C [Example 17] | < 100 | < 100 | – | – |
| CCOc1cc2ncc(C#N)c(Nc3ccc(OCc4ncccc4C)cc3)c2cc1NC(=O)CCCN(C)C [Example 20] | < 100 | – | 100 to 1000 | – |
| CCOc1cc2ncc(C#N)c(Nc3ccc(OCc4cc(C5CC5)on4)c(Cl)c3)c2cc1NC(=O)CCCN(C)C [Example 40] | 100 to 1000 | – | 100 to 1000 | – |
| CCOc1cc2ncc(C#N)c(Nc3ccc(O)cc3C)c2cc1NC(=O)CCCN(C)C [Example 139] | 100 to 1000 | – | 1000 to 10000 | – |
| CCOc1cc2ncc(C#N)c(Nc3ccc(OCc4nc5ccccc5nc4C)c(Cl)c3)c2cc1NC(=O)CCCN(C)C [Example 42] | < 100 | – | 100 to 1000 | – |
| CCOc1cc2ncc(C#N)c(Nc3ccc(OCc4ncccc4C)cc3C)c2cc1NC(=O)CCCN(C)C [Example 31] | < 100 | < 100 | – | – |
| CCOc1cc2ncc(C#N)c(Nc3ccc(OCc4cccc(C#N)n4)c(Cl)c3)c2cc1NC(=O)CCCN(C)C [Example 5] | < 100 | – | 100 to 1000 | – |
| CCOc1cc2ncc(C#N)c(Nc3cc(C)c(OCc4ncccc4C)c(C)c3)c2cc1NC(=O)CCCN(C)C [Example 32] | < 100 | – | 100 to 1000 | – |
| CCOc1cc2ncc(C#N)c(Nc3ccc(OCc4ncccc4C)c(F)c3)c2cc1NC(=O)CCCN(C)C [Example 22] | < 100 | < 100 | – | – |
| CCOc1cc2ncc(C#N)c(Nc3ccc(OCc4ccc(C)cn4)c(Cl)c3)c2cc1NC(=O)CCCN(C)C [Example 11] | 100 to 1000 | < 100 | – | – |
| CCOc1cc2ncc(C#N)c(Nc3ccc(OCc4cc(C)ccn4)c(Cl)c3)c2cc1NC(=O)CCCN(C)C [Example 10] | < 100 | – | 100 to 1000 | – |
| CCOc1cc2ncc(C#N)c(Nc3ccc(OCc4ccccn4)c(Cl)c3)c2cc1NC(C)=O [Example 85] | < 100 | – | 1000 to 10000 | – |
| CCOc1cc2ncc(C#N)c(Nc3ccc(OCc4ncccc4C)cc3C#N)c2cc1NC(=O)CCCN(C)C [Example 30] | < 100 | – | 100 to 1000 | – |
| CCOc1cc2ncc(C#N)c(Nc3ccc(OCc4ccccn4)c(Cl)c3)c2cc1NC(=O)CCCN1CCCCC1 [Example 97] | < 100 | – | 100 to 1000 | – |
| CCOc1cc2ncc(C#N)c(Nc3ccc(OCc4ccccn4)c(Cl)c3)c2cc1NC(=O)CCCN(C)C [Example 8] | < 100 | – | 100 to 1000 | – |
| CCOc1cc2ncc(C#N)c(Nc3ccc(OCc4ncccc4C(=O)OC)cc3Cl)c2cc1NC(=O)CCCN(C)C [Example 82] | 100 to 1000 | – | 100 to 1000 | – |
| CCOc1cc2ncc(C#N)c(Nc3ccc(OCc4ncccc4OC)c(Cl)c3)c2cc1NC(=O)CCCN(C)C [Example 18] | < 100 | – | 100 to 1000 | – |
| CCOc1cc2ncc(C#N)c(Nc3ccc(OCc4ncccc4Br)c(Cl)c3)c2cc1NC(=O)CCCN(C)C [Example 15] | < 100 | < 100 | – | – |
| CCOc1cc2ncc(C#N)c(Nc3ccc(OCc4ncccc4C)c(OC(F)(F)F)c3)c2cc1NC(=O)CCCN(C)C [Example 80] | 100 to 1000 | – | 100 to 1000 | – |
| CCOc1cc2ncc(C#N)c(Nc3ccc(OCc4ccccn4)c(F)c3)c2cc1NC(=O)CCCN(C)C [Example 9] | 100 to 1000 | – | 100 to 1000 | – |
